The format of data set [1] is in vivo, human. The following applies: for M:P AUCinf ratio, relative bioavailability point estimate / M:P AUCt ratio, relative bioavailability point estimate: Day 11 vs. day 1; for change in Tmax / change in terminal elimination half-life: day 11 compared to day 1, all subjects; for Cmax, geometric mean (mean, %CV): N = 20.
Data set [2] has as its system P‐gp. The following applies: following elagolix 200 mg b.i.d. regimen; cited from earlier work.
The test system of data set [3] is CYP2C19. As to the kind of experiment: Clinical classification of elagolix as CYP2C19 inhibitor from omeprazole DDI. It is filed as in vivo, human. The note with it: elagolix 300 mg b.i.d., FDA criteria for clinical CYP enzyme inhibitors.
Data set [4] can be described thus: Elagolix plasma concentrations on day 11 of this study. In kind it is in vivo. The note with it: female, human, oral, 300 mg.
The subject of data set [5] is P‐gp. The following applies: in vitro; cited from earlier work.
The test system of data set [6] is CYP2C19. The following applies: in vitro; cited from earlier work.
The test system of a further data set is CYP3A. The following applies: in vitro; cited from earlier work.
Another data set concerns CYP3A4. The following applies: cited from earlier work.
For data set [7] the following is noted: rabbits, coadministration with verapamil; cited from earlier work.
The conditions of data set [8]: cited from earlier work.
The conditions of data set [9]: no reference given; cited from earlier work.
For data set [10] the following is noted: low aqueous solubility and high permeability; cited from earlier work.
The mark [11] stands for this setting: Day 1, omeprazole 40 mg (reference).
Setting [12] is: Day 11, elagolix 300 mg b.i.d. + omeprazole 40 mg (test).
The mark [13] stands for this setting: Study day 1, omeprazole 40 mg alone.
[14] abbreviates: Study day 11, omeprazole 40 mg + elagolix 300 mg b.i.d.
The mark [15] stands for this setting: day 11 (elagolix 300 mg b.i.d.) vs day 1, all subjects.

Where “and” joins values, the source holds several entries; their conditions need not be identical. Equal values may be shown once. Read-outs that look alike come from different tables or passages of the source. Marks after values point to notes of the source that are not given here.

As to `COc1ccc2nc(S(=O)(=O)Cc3ncc(C)c(OC)c3C)[nH]c2c1` [omeprazole sulfone], in [1] (setting [11]), the “M:P AUCinf ratio, central value” was determined as 0.825 and the “M:P AUCt ratio, central value” is 0.679. In data set [1] (setting [12]), the “M:P AUCinf ratio, central value” was 1.028 and the “M:P AUCt ratio, central value” turned out to be 1.017. For the same compound, in [1], the “M:P AUCinf ratio, relative bioavailability point estimate” value is listed as 1.246; the “M:P AUCt ratio, relative bioavailability point estimate” value is listed as 1.497; the “change in Tmax” value is reported as “relatively unchanged”; the “change in terminal elimination half-life” value is recorded as “relatively unchanged”. The “change in Cmax after elagolix dosing” value in data set [1] (PM subjects) is on record as “unchanged”. For the same compound, in data set [1] (setting [13]), the “RAUCinf, metabolite-to-omeprazole AUCinf ratio, median (minimum–maximum)” value is given as 0.85 (0.52–1.1) ^e and the “RAUCt, metabolite-to-omeprazole AUCt ratio, median (minimum–maximum)” value was 0.76 (0.13–1.1). In addition, in data set [1] (setting [14]), the “RAUCinf, metabolite-to-omeprazole AUCinf ratio, median (minimum–maximum)” value is given as 0.99 (0.71–1.5) and the “RAUCt, metabolite-to-omeprazole AUCt ratio, median (minimum–maximum)” value was 0.97 (0.67–1.5). In data set [1] (setting [15]), the “increase in AUCinf (exposure)” value is 2.5 fold and the “increase in Cmax” value is 2.7 fold. The increase in exposures in data set [1] (day 11 vs day 1, EM and IM subjects) is on record as ~ 3 fold. Moreover, in [1] (day 11 vs day 1, EM subjects), the “increase in AUCinf” value was determined as 2.7 fold. The “increase in AUCinf” value in [1] (day 11 vs day 1, IM subjects) was determined as 3 fold. In [1] (day 11 vs day 1, all subjects), the “increase in metabolite-to-parent (M:P) AUC ratio” value is recorded as 25%. Besides, in [1] (one PM subject with AUCinf on both days), the “AUCinf on day 11 lower compared to day 1” value amounted to 40%.

Regarding `C[C@H]1O[C@@H](O[C@H]2[C@@H](O)C[C@H](O[C@H]3[C@@H](O)C[C@H](O[C@H]4CC[C@@]5(C)[C@H](CC[C@@H]6[C@@H]5C[C@@H](O)[C@]5(C)[C@@H](C7=CC(=O)OC7)CC[C@]65O)C4)O[C@@H]3C)O[C@@H]2C)C[C@H](O)[C@@H]1O` [digoxin], in the data set with P‐gp [2], the “increase in AUC” value is 26% and the “increase in Cmax” value was 71%.

Regarding `COc1cccc(-c2c(C)n(Cc3c(F)cccc3C(F)(F)F)c(=O)n(C[C@H](NCCCC(=O)O)c3ccccc3)c2=O)c1F` [elagolix], in the data set on CYP2C19 [3], the “clinical CYP2C19 inhibitor classification” value was “weak inhibitor”. In addition, in [4], the Cmax worked out at 1410 ng/mL. Also, in the data set on P‐gp [5], the IC50 is 54 µM. In addition, in the data set with CYP2C19 [6], the inhibitory constant (Ki) is 34 µM and the kinact was 0.029 min⁻¹. Moreover, in the data set on CYP3A, the maximum induction is on record as 20 fold. Further, the CYP3A inducer classification result in the data set with CYP3A4 (from midazolam DDI) was “weak to moderate inducer”.

For the compound `Cc1ncc2n1-c1ccc(Cl)cc1C(c1ccccc1F)=NC2` [midazolam], the entries for the “reduction in AUC” value with CYP3A4 (with elagolix 150 mg q.d.) and with CYP3A4 (with elagolix 300 mg b.i.d.) were 35% and 54%, respectively.

Regarding `COc1ccc2nc([S+]([O-])Cc3ncc(CO)c(OC)c3C)[nH]c2c1` (stereo not shown) [5‐hydroxyomeprazole], in [1] (setting [11]), the “M:P AUCinf ratio, central value” is 0.458 and the “M:P AUCt ratio, central value” stood at 0.471. For the same compound, in data set [1] (setting [12]), the “M:P AUCinf ratio, central value” was determined as 0.198 and the “M:P AUCt ratio, central value” is on record as 0.194. Besides, in [1], the “M:P AUCinf ratio, relative bioavailability point estimate” value was 0.432; the “M:P AUCt ratio, relative bioavailability point estimate” value was 0.412; the “change in terminal elimination half-life” value is reported as “unchanged”. Also, in data set [1] (setting [13]), the “AUCinf, geometric mean (mean, %CV)” value is recorded as 883 (932, 33) ng•h/ml; the “AUCt, geometric mean (mean, %CV)” value is on record as 857 (911, 35) ng•h/ml; the “RAUCinf, metabolite-to-omeprazole AUCinf ratio, median (minimum–maximum)” value was 0.61 (0.048–2.3) ^c; the “RAUCt, metabolite-to-omeprazole AUCt ratio, median (minimum–maximum)” value is given as 0.65 (0.044–2.1). Further, in [1] (setting [13]), the “Tmax, median (minimum–maximum)” value was 2.0 (2.0–10) h; the “t1/2, harmonic mean (pseudo-standard deviation)” value is 1.88 (0.794) h; the “Cmax, geometric mean (mean, %CV)” value was 195 (238, 61) ng/ml. In data set [1] (setting [14]), the “AUCinf, geometric mean (mean, %CV)” value is recorded as 664 (679, 21) ng•h/ml; the “AUCt, geometric mean (mean, %CV)” value is given as 643 (659, 22) ng•h/ml; the “RAUCinf, metabolite-to-omeprazole AUCinf ratio, median (minimum–maximum)” value is reported as 0.20 (0.071–0.90); the “RAUCt, metabolite-to-omeprazole AUCt ratio, median (minimum–maximum)” value is given as 0.20 (0.071–0.84). Also, in [1] (setting [14]), the “Tmax, median (minimum–maximum)” value was 3.0 (1.0–8.0) h; the “t1/2, harmonic mean (pseudo-standard deviation)” value was 1.97 (0.901) h; the “Cmax, geometric mean (mean, %CV)” value is listed as 134 (142, 34) ng/ml. The “decrease in AUCinf” value in data set [1] (day 11 vs day 1, EM subjects) was found to be 23%. For the same compound, the “decrease in AUCinf” value in [1] (day 11 vs day 1, IM subjects) is listed as 30%. For the same compound, in [1] (day 11 vs day 1, PM subjects), the “decrease in AUCinf (exposure)” value is on record as 20%. Further, in data set [1] (day 11 vs day 1, all subjects), the “decrease in AUCinf (exposure)” value amounted to 25%, the “decrease in Cmax” value is recorded as “approximately 30%”, the “decrease in metabolite-to-parent (M:P) AUC ratio” value was ~ 60% and the “increase in Tmax” value is 1 h.

On to `COc1ccc2[nH]c([S+]([O-])Cc3ncc(C)c(OC)c3C)nc2c1` (stereo not shown) [omeprazole, reference compound], for which, in data set [1] (setting [15]), the “increase in AUCinf (exposure)” value was 1.8 fold. Further, the “increase in Cmax” value in [1] (setting [15]) is 1.9 fold; in [1] (day 11 vs day 1, PM subjects), 23%; in [7], “more than 2 fold”. Besides, in [1], the “change in Tmax” value was “unchanged”. For the same compound, the “change in terminal elimination half-life” value in data set [1] is listed as “unchanged”. Further, the “increase in AUCinf” value in data set [1] (day 11 vs day 1, EM subjects) turned out to be 2 fold; in data set [1] (day 11 vs day 1, IM subjects), 2.6 fold. For the same compound, the “decrease in AUCinf (exposure)” value in data set [1] (day 11 vs day 1, PM subjects) was 40%. The Tmax in data set [1] (human, plasma, oral, 40 mg, Tmax, individual subjects, three PM subjects, day 1) was 8 h. For the same compound, the “Tmax, individual subjects” value in data set [1] (three PM subjects, day 1) was 10 h and 2 h; in data set [1] (three PM subjects, day 11), 2 h (2×) and 1 h. The “increase in AUC” value in data set [7] is on record as “more than 2 fold”. Also, the “model-estimated absorption rate constant, higher vs homozygous wild-type” value in data set [8] (subjects heterozygous for ABCB1 mutant alleles) was 2 fold; in data set [8] (subjects homozygous for ABCB1 mutant alleles), 7 fold. Also, the “estimated fraction absorbed and escaping intestinal first pass (fa*fg)” value in data set [9] was “approximately 0.80”. In [10], the “Biopharmaceutics Classification System (BCS) class” value was “Class 2”.

As a reminder, the Cmax is the peak of the concentration-time curve. As usually defined, the IC50 is the concentration at which inhibition is half-maximal. As a reminder, the Ki is the equilibrium dissociation constant of an inhibitor or competing ligand from its target. As a reminder, the kinact is the maximal first-order rate at which the target is inactivated. In general, Tmax refers to the time at which the peak concentration occurs.

The values are drawn from PMC9099122 (Clinical and Translational Science, 2022).
